Values of other authors as cited in patent US20210267908A1, “PHARMACEUTICAL COMPOSITIONS OF RIVAROXABAN” (MANKIND PHARMA LTD., priority 2020, published 2021).

In the case of `O=C(NC[C@H]1CN(c2ccc(N3CCOCC3=O)cc2)C(=O)O1)c1ccc(Cl)s1` [Rivaroxaban, 5-Chloro-N-({(5S)-2-oxo-3-[4-(3-oxo-4-morpholinyl)phenyl]-1,3-oxazolidin-5-yl}methyl)-2-thiophenecarboxamide], the “amount pH-independently soluble in aqueous media” value (aqueous media at 25° C.) is given as 5-7 mg/L, the “solubility in organic solvents” value (organic solvents (e.g. acetone, polyethylene glycol 400)) is given as “only slightly soluble” and the “solubility in water and aqueous media” value (water and aqueous media with pH 1-9) is given as “practically insoluble”.
